Measured values as given in ChEMBL document CHEMBL4616632, “Discovery of Cyclic Boronic Acid QPX7728, an Ultrabroad-Spectrum Inhibitor of Serine and Metallo-β-lactamases” (J Med Chem, 2020).

Assays:
[1] = molecular target: Beta-lactamase (Klebsiella pneumoniae) (UniProt Q93LQ9); experiment: Inhibition of Klebsiella pneumoniae KP1004 KPC-2 assessed as minimum concentration of compound needed to reduce the MIC of aztreonam to 4 ug/ml
Escherichia coli [2] = experiment: Inhibition of Escherichia coli EC308 SHV-5 assessed as minimum concentration of compound needed to reduce the MIC of aztreonam to 4 ug/ml
Enterobacter cloacae = experiment: Inhibition of Enterobacter cloacae ECL1002 AmpC assessed as minimum concentration of compound needed to reduce the MIC of aztreonam to 4 ug/ml
Escherichia coli [3] = experiment: Inhibition of Escherichia coli EC302 TEM-10 assessed as minimum concentration of compound needed to reduce the MIC of aztreonam to 4 ug/ml
Klebsiella pneumoniae [4] = experiment: Inhibition of Klebsiella pneumoniae KP1009 CTX-M-15 assessed as minimum concentration of compound required to reduce the MIC of aztreonam to 4 ug/ml
Pseudomonas aeruginosa = experiment: Inhibition of Pseudomonas aeruginosa PAM 2035 AmpC assessed as minimum concentration of compound needed to reduce the MIC of aztreonam to 4 ug/ml
Escherichia coli [5] = experiment: Inhibition of Escherichia coli KP308 SHV-5 assessed as minimum concentration of compound required to reduce the MIC of aztreonam to 4 ug/ml
Escherichia coli [6] = experiment: Inhibition of Escherichia coli ECM6625 SHV-5 assessed as minimum concentration of compound needed to reduce the MIC of aztreonam to 4 ug/ml
Escherichia coli [7] = experiment: Inhibition of Escherichia coli ECM6619 TEM-10 assessed as minimum concentration of compound needed to reduce the MIC of aztreonam to 4 ug/ml
Klebsiella pneumoniae [8] = experiment: Inhibition of Klebsiella pneumoniae KP1054 VIM-1 assessed as minimum concentration of compound required to reduce the MIC of biapenem to 1 ug/ml
Acinetobacter baumannii = experiment: Inhibition of Acinetobacter baumannii AB1053 OXA-72 assessed as minimum concentration of compound needed to reduce the MIC of meropenem to 8 ug/ml
Klebsiella pneumoniae [9] = experiment: Inhibition of Klebsiella pneumoniae KP1081 NDM-1 assessed as minimum concentration of compound required to reduce the MIC of biapenem to 1 ug/ml
Klebsiella pneumoniae [10] = experiment: Inhibition of Klebsiella pneumoniae KP1160 IMP-26 assessed as minimum concentration of compound needed to reduce the MIC of meropenem to 1 ug/ml
[11] = molecular target: Beta-lactamase OXA-23 (Acinetobacter baumannii) (UniProt Q9L4P2); experiment: Inhibition of Acinetobacter baumannii AB1054 OXA-23 assessed as minimum concentration of compound needed to reduce the MIC of meropenem to 8 ug/ml
Beta-lactamase OXA-23 (Acinetobacter baumannii), sequence (Q9L4P2 whole entry): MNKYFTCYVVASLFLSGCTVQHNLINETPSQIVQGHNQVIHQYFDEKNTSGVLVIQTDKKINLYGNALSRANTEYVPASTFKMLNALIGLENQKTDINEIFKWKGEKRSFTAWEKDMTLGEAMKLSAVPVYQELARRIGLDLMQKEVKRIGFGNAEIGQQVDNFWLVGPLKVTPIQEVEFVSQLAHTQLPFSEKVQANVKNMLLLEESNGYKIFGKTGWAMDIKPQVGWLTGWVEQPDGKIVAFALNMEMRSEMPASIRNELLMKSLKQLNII

Beta-lactamase (Klebsiella pneumoniae), sequence (Q93LQ9 as listed by the source): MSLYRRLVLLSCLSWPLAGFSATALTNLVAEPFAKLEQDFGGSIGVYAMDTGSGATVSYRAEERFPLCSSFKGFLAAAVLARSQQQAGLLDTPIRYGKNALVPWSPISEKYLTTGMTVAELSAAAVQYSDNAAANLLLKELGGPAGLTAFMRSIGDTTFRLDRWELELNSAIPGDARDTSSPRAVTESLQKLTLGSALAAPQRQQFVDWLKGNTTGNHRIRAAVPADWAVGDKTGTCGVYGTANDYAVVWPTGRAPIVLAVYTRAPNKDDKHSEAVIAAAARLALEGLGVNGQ

Row | Structure (SMILES) | MEC [1] | MEC (Escherichia coli [2]) | MEC (Enterobacter cloacae) | MEC (Escherichia coli [3]) | MEC (Klebsiella pneumoniae [4]) | MEC (Pseudomonas aeruginosa) | MEC (Escherichia coli [5]) | MEC (Escherichia coli [6]) | MEC (Escherichia coli [7]) | MEC (Klebsiella pneumoniae [8]) | MEC (Acinetobacter baumannii) | MEC (Klebsiella pneumoniae [9]) | MEC (Klebsiella pneumoniae [10]) | MEC [11]
1 | CSCC(=O)N[C@H]1Cc2ccc(Sc3nnc(N)s3)c(C(=O)O)c2OB1O | 5 µg/mL | < 0.3 µg/mL | 2.5 µg/mL | 2.5 µg/mL | 2.5 µg/mL | > 20 µg/mL |  |  |  |  |  |  |  | 
2 | CSCC(=O)N[C@H]1Cc2ccc(SC)c(C(=O)O)c2OB1O | 0.6 µg/mL | 0.04 µg/mL | 1.25 µg/mL | 1.25 µg/mL | 0.6 µg/mL | 20 µg/mL |  |  |  |  |  |  |  | 
3 | O=C(O)c1c(F)ccc2c1OB(O)[C@H]1C[C@@H]21 | 0.3 µg/mL |  | 2.5 µg/mL | 1.25 µg/mL | 1.25 µg/mL | 5 µg/mL | 1.25 µg/mL | 1.25 µg/mL | 1.25 µg/mL | > 20 µg/mL | 5 µg/mL | 5 µg/mL | > 20 µg/mL | 10 µg/mL
4 | C[C@@H]1Cc2cccc(C(=O)O)c2OB1O | 5 µg/mL |  | > 20 µg/mL | > 20 µg/mL | > 20 µg/mL | 1.25 µg/mL | > 20 µg/mL | > 20 µg/mL | > 20 µg/mL | 20 µg/mL | > 20 µg/mL | 10 µg/mL | > 20 µg/mL | > 20 µg/mL
5 | O=C(O)c1nccc2c1OB(O)[C@H]1C[C@@H]21 | 1.25 µg/mL |  | 20 µg/mL | 5 µg/mL | 20 µg/mL | 10 µg/mL | 10 µg/mL | 10 µg/mL | 5 µg/mL | 20 µg/mL | 5 µg/mL | 20 µg/mL | > 20 µg/mL | 10 µg/mL
6 | CSCC(=O)N[C@H]1Cc2ccc(SCCO)c(C(=O)O)c2OB1O | 2.5 µg/mL | 0.04 µg/mL | 5 µg/mL | 1.25 µg/mL | 1.25 µg/mL | > 20 µg/mL |  |  |  |  |  |  |  | 
7 | COc1ccc2c(c1C(=O)O)OB(O)C1CCC21 (centres undefined) | 5 µg/mL |  | 10 µg/mL | 10 µg/mL | 10 µg/mL | 10 µg/mL | 10 µg/mL | 10 µg/mL | 10 µg/mL | 5 µg/mL | 5 µg/mL | 10 µg/mL | 20 µg/mL | 10 µg/mL
8 | O=C(O)c1nccc2c1OB(O)[C@@H]1C[C@H]21 | 0.6 µg/mL |  | 5 µg/mL | 0.3 µg/mL | 2.5 µg/mL | 2.5 µg/mL | 0.6 µg/mL | 0.6 µg/mL | 0.3 µg/mL | 0.3 µg/mL | 0.3 µg/mL | 2.5 µg/mL | > 20 µg/mL | 1.25 µg/mL
9 | COc1ccc2c(c1C(=O)O)OB(O)C=C2 | 2.5 µg/mL |  | 10 µg/mL | 20 µg/mL | 10 µg/mL | 10 µg/mL | 20 µg/mL | 20 µg/mL | 20 µg/mL | > 20 µg/mL | 20 µg/mL | > 20 µg/mL | > 20 µg/mL | > 20 µg/mL
10 | COc1ccc2c(c1C(=O)O)OB(O)C(CO)C2 (centres undefined) | 10 µg/mL |  | 20 µg/mL | > 20 µg/mL | > 20 µg/mL | > 20 µg/mL | > 20 µg/mL | > 20 µg/mL | > 20 µg/mL | > 20 µg/mL | > 20 µg/mL | > 20 µg/mL | > 20 µg/mL | > 20 µg/mL
11 | CSCC(=O)N[C@H]1Cc2ccc(Sc3nncn3C)c(C(=O)O)c2OB1O | 5 µg/mL | < 0.3 µg/mL | 5 µg/mL | 2.5 µg/mL | 2.5 µg/mL | > 20 µg/mL |  |  |  |  |  |  |  | 
12 | CSCC(=O)N[C@H]1Cc2ccc(OCCO)c(C(=O)O)c2OB1O | 1.25 µg/mL | < 0.3 µg/mL | 5 µg/mL | 2.5 µg/mL | 1.25 µg/mL | > 20 µg/mL |  |  |  |  |  |  |  | 
13 | COc1ccc2c(c1C(=O)O)OB(O)CC21CC1 | 1.25 µg/mL |  | 2.5 µg/mL | 5 µg/mL | 2.5 µg/mL | 10 µg/mL | 1.25 µg/mL | 1.25 µg/mL | 5 µg/mL | 20 µg/mL | 1.25 µg/mL | 2.5 µg/mL | > 20 µg/mL | 2.5 µg/mL
14 | COc1ccc2c(c1C(=O)O)OB(O)C(F)=C2 | 0.16 µg/mL |  | 0.3 µg/mL | 1.25 µg/mL | 1.25 µg/mL | 5 µg/mL | 1.25 µg/mL | 1.25 µg/mL | 1.25 µg/mL | > 20 µg/mL | 2.5 µg/mL | 5 µg/mL | 2.5 µg/mL | 5 µg/mL
15 | C[C@H]1Cc2cccc(C(=O)O)c2OB1O | 1.25 µg/mL |  | 20 µg/mL | > 20 µg/mL | > 20 µg/mL | 1.25 µg/mL | 20 µg/mL | 20 µg/mL | > 20 µg/mL | 5 µg/mL | > 20 µg/mL | 1.25 µg/mL | > 20 µg/mL | > 20 µg/mL
16 | CSCC(=O)N[C@H]1Cc2ccc(SCC(N)=O)c(C(=O)O)c2OB1O | 2.5 µg/mL | 0.16 µg/mL | 2.5 µg/mL | 1.25 µg/mL | 0.6 µg/mL | > 20 µg/mL |  |  |  |  |  |  |  | 
17 | CSCC(=O)N[C@H]1Cc2ccc(SC3CNC3)c(C(=O)O)c2OB1O | 1.25 µg/mL | 0.6 µg/mL | 10 µg/mL | 5 µg/mL | 0.6 µg/mL | 20 µg/mL |  |  |  |  |  |  |  | 
18 | COc1ccc2c(c1C(=O)O)OB(O)C1(CO)CC21 (centres undefined) | 1.25 µg/mL |  | 2.5 µg/mL | 5 µg/mL | 10 µg/mL | 20 µg/mL | 5 µg/mL | 5 µg/mL | 5 µg/mL | 0.16 µg/mL | 2.5 µg/mL | 0.6 µg/mL | 2.5 µg/mL | 10 µg/mL
19 | CSCC(=O)N[C@H]1Cc2ccc(OCC(=O)O)c(C(=O)O)c2OB1O | 5 µg/mL | 0.08 µg/mL | 5 µg/mL | 5 µg/mL | 2.5 µg/mL | > 20 µg/mL |  |  |  |  |  |  |  | 
20 | COc1ccc2c(c1C(=O)O)OB(O)C1(CC1)C2 | 5 µg/mL |  | 10 µg/mL | > 20 µg/mL | > 20 µg/mL | 10 µg/mL | > 20 µg/mL | > 20 µg/mL | > 20 µg/mL | 5 µg/mL | > 20 µg/mL | 10 µg/mL | > 20 µg/mL | > 20 µg/mL
